From patent publication EP2233463A1, “NEW COMPOUNDS ISOLATED FROM EXTRACT OF ANTRODIA CAMPHORATA” (Golden Biotechnology Corporation, priority 2007, dated 2009)
≈ marks a conversion by molar mass, not a printed value.

Legend:
Format in all cases: cell-based
[1] = system: human breast-cancer cells, MCF-7; experiment: Ex vivo survival assay (MTT) for anti-breast cancer effects, MCF-7; settings: for IC50 value lower than that of crude extracts from A. camphorata: MCF-7, relative to crude extracts (11.13 µg/ml); for IC50(µg/ml) MCF-7: MCF-7 cells, 48 hours incubation, MTT, 570 nm
Protocol: (§1) The NCI anti-cancer drug screen model was adopted to test the anti-cancer effect of the isolated compounds from example 1 in the present invention. The isolated Antroquinonol B and Antroquinonol C from example 1 were added into the culture media of human breast-cancer cells, MCF-7 or MDA-MB-231, to test for tumor cell survival. This survival assay was carried out with the widely known MTT (3-[4,5-dimethylthiazol-2-yl]2,5-diphenyltetrazolium bromide) assay. MCF-7 cell line is originated from primary breast cancer cells (early stage), sensitive to estrogen and therefore is estrogen-dependent, while MDA-MB-231 is insensitive to estrogen and therefore is estrogen-independent, which is a difficult tumor with a low survival rate. MTT assay is commonly used to determine cell proliferation, percent of viable cells, and cytotoxicity. 3-[4,5-dimethylthiazol-2-yl]2,5-diphenyltetrazolium bromide (MTT) is a yellow dye, which can be absorbed by the living cells and be reduced to purplish blue formazan crystals by succinate tetrazolium reductase in mitochondria. Formazan formation can therefore be used to assess and determine the survival rate of cells. The human breast-cancer cells, MCF-7 (purchased from the Bioresources Collection and Research Center (BCRC) with the accession number of BCRC60436) and MDA-MB-231 (purchased from National Health Research Institutes (NHRI) with the accession number of CCRC 60425) were cultivated in media containing fetal calf serum for 24 hours. The proliferated cells were washed once with PBS, then treated with 1x trypsin-EDTA and centrifuged at 1200 rpm for 5 minutes. The supernatant was discarded and the cell pellet was resuspended in 10 ml of fresh culture medium by gently shaking. The cells were placed in a 96-well plate. Total ethanol extracts of Antrodia camphorata without purification (the control group), Antroquinonol B or Antroquinonol C (the experimental group) were added into each of the 96 wells at the following concentrations: 30, 10, 3, 1, 0.3, 0.1 and 0.03 µg/ml, respectively. The cells were incubated at 37°C in a 5% CO2 incubator for 48 hours. MTT was added in a concentration of 2.5 mg/ml into each well in dark and incubated for 4 hours, followed by the addition of 100 µl of lysis buffer to stop the reaction. The plates were read on an ELISA reader at wavelength of 570 nm to determine the survival rates. Table 1 Results of ex vivo survival assay for inhibition of breast cancer cells

[2] = system: human breast-cancer cells, MDA-MB-231; experiment: Ex vivo survival assay (MTT) for anti-breast cancer effects, MDA-MB-231; settings: for IC50 value lower than that of crude extracts from A. camphorata: MDA-MB-231, relative to crude extracts (25.81 µg/ml); for IC50(µg/ml) MDA-MB-231: MDA-MB-231 cells, 48 hours incubation, MTT, 570 nm
Protocol: as §1

[3] = system: human lung cancer cell A549; experiment: Ex vivo survival assay (MTT) for anti-lung cancer effects, A549; settings: for IC50 value lower than that of crude extracts from A. camphorata: A549, relative to crude extracts (13.21 µg/ml); for IC50 ( µg/ml ) A549: A549 cells, 48 hours incubation, MTT, 570 nm
Text: MTT assay is commonly used to determine cell proliferation, percent of viable cells, and cytotoxicity. 3-[4,5-dimethylthiazol-2-yl]2,5-diphenyltetrazolium bromide (MTT) is a yellow dye, which can be absorbed by the living cells and be reduced to purplish blue formazan crystals by succinate tetrazolium reductase in mitochondria. Formazan formation can therefore be used to assess and determine the survival rate of cells. The NCI anti-cancer drug screen model was also employed to test the anti-lung cancer effect of the Antroquinonol B and Antroquinonol C in the present invention. The Antroquinonols isolated from example 1 were added into the culture media of human lung cancer cell A549 with the abovementioned MTT assay to analyze lung cancer cell survival rates. Human lung cancer cell A549 was obtained from the Bioresources Collection and Research Center (BCRC) of the Food Industry Research and Development Institute with an accession number of BCRC 60074. A549 cells were cultivated in media containing fetal calf serum for 24 hours. The proliferated cells were washed once with PBS, then treated with 1x trypsin-EDTA and centrifuged at 1200 rpm for 5 minutes. The supernatant was discarded and the cell pellet was resuspended in 10 ml of fresh culture medium by gently shaking. The cells were placed in a 96-well plate. Total ethanol extracts of Antrodia camphorata without purification (the control group), Antroquinonol B or Antroquinonol C (the experimental group) were added into each of the 96 wells at the following concentrations: 30, 10, 3, 1, 0.3, 0.1 and 0.03 µg/ml, respectively. The cells were incubated at 37°C in a 5% CO2 incubator for 48 hours. MTT was added in a concentration of 2.5 mg/ml into each well in dark and incubated for 4 hours, followed by the addition of 100 µl of lysis buffer to stop the reaction. The plates were read on an ELISA reader at wavelength of 570 nm to determine the survival rates. Table 2 Results of ex vivo survival assay for inhibition of lung cancer cells

[4] = system: human hepatic-cancer cells, Hep 3B; experiment: Ex vivo survival assay (MTT) for anti-hepatic cancer effects, Hep 3B; settings: for IC50 ( µg/ml ) Hep3B: Hep 3B cells, 48 hours incubation, MTT, 570 nm; for IC50 value lower than that of crude extracts from A. camphorata: Hep 3B, relative to crude extracts (5.10 µg/ml)
Text: (§2) MTT assay is commonly used to determine cell proliferation, percent of viable cells, and cytotoxicity. 3-[4,5-dimethylthiazol-2-yl]2,5-diphenyltetrazolium bromide (MTT) is a yellow dye, which can be absorbed by the living cells and be reduced to purplish blue formazan crystals by succinate tetrazolium reductase in mitochondria. Formazan formation can therefore be used to assess and determine the survival rate of cells. The NCI anti-cancer drug screen model was employed to test the anti-cancer effect of the Antroquinonol B and Antroquinono C in the present invention. The Antroquinonos isolated from example 1 were added into the culture media of human hepatic-cancer cells, Hep 3B or Hep G2, for tumor cell survival assay. Hepatic-cancer cells Hep 3B (BCRC 60434) and Hep G2 (BCRC 60025), were obtained from the Bioresources Collection and Research Center (BCRC) of the Food Industry Research and Development Institute. The human hepatic-cancer cells, Hep 3B and Hep G2, were cultivated in media containing fetal calf serum for 24 hours. The proliferated cells were washed once with PBS, then treated with 1x trypsin-EDTA and centrifuged at 1200 rpm for 5 minutes. The supernatant was discarded and the cell pellet was resuspended in 10 ml of fresh culture medium by gently shaking. The cells were placed in a 96-well plate. Total ethanol extracts of Antrodia camphorata without purification (the control group), Antroquinonol B or Antroquinonol C (the experimental group) were added into each of the 96 wells at the following concentrations: 30, 10, 3, 1, 0.3, 0.1 and 0.03 µg/ml, respectively. The cells were incubated at 37°C in a 5% CO2 incubator for 48 hours. MTT was added in a concentration of 2.5 mg/ml into each well in dark and incubated for 4 hours, followed by the addition of 100 µl of lysis buffer to stop the reaction. The plates were read on an ELISA reader at wavelength of 570 nm to determine the survival rates. Table 3 Results of ex vivo survival assay for inhibition of hepatic cancer cells

[5] = system: human hepatic-cancer cells, Hep G2; experiment: Ex vivo survival assay (MTT) for anti-hepatic cancer effects, Hep G2; settings: for IC50 value lower than that of crude extracts from A. camphorata: Hep G2, relative to crude extracts (18.63 µg/ml); for IC50 ( µg/ml ) HepG2: Hep G2 cells, 48 hours incubation, MTT, 570 nm
Text: as §2

[6] = system: human prostate cancer cells, LNCaP; experiment: Ex vivo survival assay (MTT) for anti-prostate cancer effects, LNCaP; settings: for IC50 ( µg/ml ) LNCaP: LNCaP cells, 48 hours incubation, MTT, 570 nm; for IC50 value lower than the IC50 value of the control group: LNCaP, relative to control group (11.49 µg/ml)
Text: (§3) MTT assay is commonly used to determine cell proliferation, percent of viable cells, and cytotoxicity. 3-[4,5-dimethylthiazol-2-yl]2,5-diphenyltetrazolium bromide (MTT) is a yellow dye, which can be absorbed by the living cells and be reduced to purplish blue formazan crystals by succinate tetrazolium reductase in mitochondria. Formazan formation can therefore be used to assess and determine the survival rate of cells.
(§4) The NCI anti-cancer drug screen model was also employed to test the anti-cancer effect of the Antroquinonols in the present invention. Antroquinonol B and Antroquinonol C isolated from […] were added into the culture media of human prostate cancer cells, LNCaP or DU-145, and prostate cancer cell survival rates were analyzed with the abovementioned MTT assay. LNCaP is originated from epithelial cells of prostate gland, which depends on androgen in the early stage and thus is androgen-dependent cancer cell. […] This recurrent type prostate cancer has no effective treatment so far. Both LNCaP and DU-145 were ordered from NHRI with accession numbers of CCRC 60088 and CCRC 60348 respectively.
(§5) The human prostate-cancer cells, LNCaP and DU-145, were cultivated in media containing fetal calf serum for 24 hours. The proliferated cells were washed once with PBS, then treated with 1x trypsin-EDTA and centrifuged at 1200 rpm for 5 minutes. The supernatant was discarded and the cell pellet was resuspended in 10 ml of fresh culture medium by gently shaking. The cells were placed in a 96-well plate. Total ethanol extracts of Antrodia camphorata without purification (the control group), Antroquinonol B or Antroquinonol C (the experimental group) were added into each of the 96 wells at the following concentrations: 30, 10, 3, 1, 0.3, 0.1 and 0.03 µg/ml, respectively. The cells were incubated at 37°C in a 5% CO2 incubator for 48 hours. MTT was added in a concentration of 2.5 mg/ml into each well in dark and incubated for 4 hours, followed by the addition of 100 µl of lysis buffer to stop the reaction. The plates were read on an ELISA reader at wavelength of 570 nm to determine the survival rates. Table 4 Results of ex vivo survival assay for inhibition of prostate cancer cells

[7] = system: human prostate cancer cells, DU-145; experiment: Ex vivo survival assay (MTT) for anti-prostate cancer effects, DU-145; settings: for IC50 value lower than the IC50 value of the control group: DU-145, relative to control group (41.39 µg/ml); for IC50 ( µg/ml ) DU-145: DU-145 cells, 48 hours incubation, MTT, 570 nm
Text: as §3, §4, §5

Antroquinonol C
IC50 value lower than that of crude extracts from A. camphorata [1]: 89.49%
IC50(µg/ml) MCF-7 [1]: 1.17 µg/mL
IC50 value lower than that of crude extracts from A. camphorata [2]: 15.15%
IC50(µg/ml) MDA-MB-231 [2]: 21.9 µg/mL
IC50 value lower than that of crude extracts from A. camphorata [3]: 37.85%
IC50 ( µg/ml ) A549 [3]: 8.21 µg/mL
IC50 ( µg/ml ) Hep3B [4]: 1.32 µg/mL
IC50 value lower than that of crude extracts from A. camphorata [4]: 74.12%
IC50 value lower than that of crude extracts from A. camphorata [5]: 72.52%
IC50 ( µg/ml ) HepG2 [5]: 5.12 µg/mL
IC50 ( µg/ml ) LNCaP [6]: 8.72 µg/mL
IC50 value lower than the IC50 value of the control group [6]: 24.11%
IC50 value lower than the IC50 value of the control group [7]: 70.5%
IC50 ( µg/ml ) DU-145 [7]: 12.21 µg/mL

COC1=C(OC)[C@H](O)[C@H](C/C=C(\C)CC/C=C(/C)C/C=C/C(C)(C)O)[C@@H](C)C1=O [Antroquinonol B]
IC50 value lower than that of crude extracts from A. camphorata [1]: 82.56%
IC50(µg/ml) MCF-7 [1]: 1.94 µg/mL (≈ 4.77 µM)
IC50 value lower than that of crude extracts from A. camphorata [2]: 66.21%
IC50(µg/ml) MDA-MB-231 [2]: 8.72 µg/mL (≈ 21.4 µM)
IC50 value lower than that of crude extracts from A. camphorata [3]: 9.92%
IC50 ( µg/ml ) A549 [3]: 11.9 µg/mL (≈ 29.3 µM)
IC50 ( µg/ml ) Hep3B [4]: 1.21 µg/mL (≈ 2.98 µM)
IC50 value lower than that of crude extracts from A. camphorata [4]: 76.27%
IC50 value lower than that of crude extracts from A. camphorata [5]: 82.18%
IC50 ( µg/ml ) HepG2 [5]: 3.32 µg/mL (≈ 8.17 µM)
IC50 ( µg/ml ) LNCaP [6]: 5.67 µg/mL (≈ 13.9 µM)
IC50 value lower than the IC50 value of the control group [6]: 50.65%
IC50 value lower than the IC50 value of the control group [7]: 75.55%
IC50 ( µg/ml ) DU-145 [7]: 10.12 µg/mL (≈ 24.9 µM)
